The text below walks through data of patent US20020028938A1, “Prostaglandin endoperoxide H synthase biosynthesis inhibitors” (priority 1997, published 2002).

In general, melting point refers to the temperature, or range, at which the solid turns liquid.

`CON=C(C)COc1c(-c2ccc(S(C)(=O)=O)cc2)cnn(-c2ccc(F)c(F)c2)c1=O` [Example 461, 2-(3,4-Difluorophenyl)-4-[2-(methoxyimino)-1-propoxy]-5-[4-(methylsulfonyl)phenyl]-3(2H)-pyridazinone] had a melting point of 143 to 145 °C. `CC(=O)CCOc1c(-c2ccc(S(C)(=O)=O)cc2)cnn(-c2ccc(F)cc2)c1=O` [Example 468, 2-(4-Fluorophenyl)-4-(3-oxo-1-butoxy)-5-[4-(methylsulfonyl)phenyl]-3(2H)-pyridazinone] displayed a melting point of 133 to 136 °C. `CC(C)(O)CCOc1c(-c2ccc(S(N)(=O)=O)cc2)cnn(-c2ccc(F)cc2)c1=O` [Example 470, 2-(4-Fluorophenyl)-4-(3-hydroxy-3-methyl-1-butoxy)-5-[4-(aminosulfonyl)phenyl]-3(2H)-pyridazinone] yielded a melting point of 163 to 164 °C. `CC(C)(O)CCOc1c(-c2ccc(S(N)(=O)=O)cc2)cnn(-c2ccc(F)c(F)c2)c1=O` [Example 472, 2-(3,4-Difluorophenyl)-4-(3-hydroxy-3-methyl-1-butoxy)-5-[4-(aminosulfonyl)phenyl]-3(2H)-pyridazinone]: the melting point was determined as 181 °C. The figure for `CC(C)(O)CCOc1c(-c2ccc(S(C)(=O)=O)cc2)cnn(-c2ccc(F)c(Cl)c2)c1=O` [Example 473, 2-(3-Chloro-4-fluorophenyl)-4-(3-hydroxy-3-methyl-1-butoxy)-5-[4-(methylsulfonyl)phenyl]-3(2H)-pyridazinone] is 108 to 110 °C; for `CC(C)(O)CCOc1c(-c2ccc(S(N)(=O)=O)cc2)cnn(-c2ccc(F)c(Cl)c2)c1=O` [Example 474, 2-(3-Chloro-4-fluorophenyl)-4-(3-hydroxy-3-methyl-1-butoxy)-5-[4-(aminosulfonyl)phenyl]-3(2H)-pyridazinone] it is 59 to 62 °C; for `CC(C)(O)COc1c(-c2ccc(S(C)(=O)=O)cc2)cnn(-c2ccc(F)c(Cl)c2)c1=O` [Example 479, 2-(3-Chloro-4-fluorophenyl)-4-(2-hydroxy-2-methyl-1-propoxy)-5-[4-(methylsulfonyl)phenyl]-3(2H)-pyridazinone] it is 122 to 124 °C. The figure for `CC(C)(O)COc1c(-c2ccc(S(N)(=O)=O)cc2)cnn(-c2ccc(F)c(Cl)c2)c1=O` [Example 480, 2-(3-Chloro-4-fluorophenyl)-4-(2-hydroxy-2-methyl-1-propoxy)-5-[4-(aminosulfonyl)phenyl]-3(2H)-pyridazinone] is 176 to 178 °C. Next, `CC(C)(CO)COc1c(-c2ccc(S(C)(=O)=O)cc2)cnn(-c2ccc(F)c(F)c2)c1=O` [Example 510, 2-(3,4-Difluorophenyl)-4-(3-hydroxy-2,2-dimethyl-1-propoxy)-5-[4-(methylsulfonyl)phenyl]-3(2H)-pyridazinone]: 161 to 162 °C. `CC(C)(O)CCOc1c(-c2ccc(S(C)(=O)=O)cc2)cnn(-c2ccc(Cl)c(Cl)c2)c1=O` [Example 532, 2-(3,4-Dichlorophenyl)-4-(3-hydroxy-3-methyl-1-butoxy)-5-[4-(methylsulfonyl)phenyl]-3(2H)-pyridazinone] returned a melting point of 118 to 120 °C.

`CC(C)COc1c(-c2ccc(S(C)(=O)=O)cc2)cnn(-c2ccc(F)c(Cl)c2)c1=O` [Example 537, 2-(3-Chloro-4-fluorophenyl)-4-(2-methyl-1-propoxy)-5-[4-(methylsulfonyl)phenyl]-3(2H)-pyridazinone] had a melting point of 116 to 120 °C. Next, `CC(C)CCOc1c(-c2ccc(S(C)(=O)=O)cc2)cnn(-c2ccc(F)c(Cl)c2)c1=O` [Example 538, 2-(3-Chloro-4-fluorophenyl)-4-(3-methyl-1-butoxy)-5-[4-(methylsulfonyl)phenyl]-3(2H)-pyridazinone]: 148 to 152 °C; `CC(C)COc1c(-c2ccc(S(C)(=O)=O)cc2)cnn(-c2ccc(Cl)c(Cl)c2)c1=O` [Example 539, 2-(3,4-Dichlorophenyl)-4-(2-methyl-1-propoxy)-5-[4-(methylsulfonyl)phenyl]-3(2H)-pyridazinone]: 127 to 129 °C; `CC(C)CCOc1c(-c2ccc(S(C)(=O)=O)cc2)cnn(-c2ccc(Cl)c(Cl)c2)c1=O` [Example 540, 2-(3,4-Dichlorophenyl)-4-(3-methyl-1-butoxy)-5-[4-(methylsulfonyl)phenyl]-3(2H)-pyridazinone]: 130 to 134 °C. Next, `CS(=O)(=O)c1ccc(-c2cnn(-c3ccc(F)c(F)c3)c(=O)c2OCCCCO)cc1` [Example 541, 2-(3,4-Difluorophenyl)-4-(4-hydroxy-1-butoxy)-5-[4-(methylsulfonyl)phenyl]-3(2H)-pyridazinone]: 110 to 113 °C; `CC(C)COc1c(-c2ccc(S(C)(=O)=O)cc2)cnn(-c2cccc(C(F)(F)F)c2)c1=O` [Example 542, 2-[3-(Trifluoromethyl)phenyl]-4-(2-methyl-1-propoxy)-5-[4-(methylsulfonyl)phenyl]-3(2H)-pyridazinone]: 125 to 127 °C. The figure for `CC(C)CCOc1c(-c2ccc(S(C)(=O)=O)cc2)cnn(-c2cccc(C(F)(F)F)c2)c1=O` [Example 543, 2-[3-(Trifluoromethyl)phenyl]-4-(3-methyl-1-butoxy)-5-[4-(methylsulfonyl)phenyl]-3(2H)-pyridazinone] is 82 to 85 °C. Turning to `CC(C)(O)CCOc1c(-c2ccc(S(C)(=O)=O)cc2)cnn(-c2cccc(C(F)(F)F)c2)c1=O` [Example 544, 2-[3-(Trifluoromethyl)phenyl]-4-(3-hydroxy-3-methyl-1-butoxy)-5-[4-(methylsulfonyl)phenyl]-3(2H)-pyridazinone], the melting point lay in the range of 90 to 93 °C.

For `C[C@H](O)CCOc1c(-c2ccc(S(C)(=O)=O)cc2)cnn(-c2ccc(F)c(F)c2)c1=O` [Example 546, (S)-2-(3,4-Difluorophenyl)-4-(3-hydroxy-1-butoxy)-5-[4-(methylsulfonyl)phenyl]-3(2H)-pyridazinone], the melting point lay in the range of 128 to 130 °C.
